Measurements published in patent publication US20240116985A1, “STAPLED PEPTIDES AND METHODS THEREOF” (priority 2020, published 2024).

biological target: T1, full-length beta-Catenin (Uniprot ID P35222) (Homo sapiens, UniProt P35222); experiment: Fluorescence polarization IC50 (beta-catenin / 5FAM-TCF4 10-53 competition); format: binding; conditions: fluorescence polarization; read-out: beta-Catenin FP IC50
T1 construct: 10 nM full-length beta-Catenin (Uniprot ID P35222)
T1 sequence (P35222 1-781): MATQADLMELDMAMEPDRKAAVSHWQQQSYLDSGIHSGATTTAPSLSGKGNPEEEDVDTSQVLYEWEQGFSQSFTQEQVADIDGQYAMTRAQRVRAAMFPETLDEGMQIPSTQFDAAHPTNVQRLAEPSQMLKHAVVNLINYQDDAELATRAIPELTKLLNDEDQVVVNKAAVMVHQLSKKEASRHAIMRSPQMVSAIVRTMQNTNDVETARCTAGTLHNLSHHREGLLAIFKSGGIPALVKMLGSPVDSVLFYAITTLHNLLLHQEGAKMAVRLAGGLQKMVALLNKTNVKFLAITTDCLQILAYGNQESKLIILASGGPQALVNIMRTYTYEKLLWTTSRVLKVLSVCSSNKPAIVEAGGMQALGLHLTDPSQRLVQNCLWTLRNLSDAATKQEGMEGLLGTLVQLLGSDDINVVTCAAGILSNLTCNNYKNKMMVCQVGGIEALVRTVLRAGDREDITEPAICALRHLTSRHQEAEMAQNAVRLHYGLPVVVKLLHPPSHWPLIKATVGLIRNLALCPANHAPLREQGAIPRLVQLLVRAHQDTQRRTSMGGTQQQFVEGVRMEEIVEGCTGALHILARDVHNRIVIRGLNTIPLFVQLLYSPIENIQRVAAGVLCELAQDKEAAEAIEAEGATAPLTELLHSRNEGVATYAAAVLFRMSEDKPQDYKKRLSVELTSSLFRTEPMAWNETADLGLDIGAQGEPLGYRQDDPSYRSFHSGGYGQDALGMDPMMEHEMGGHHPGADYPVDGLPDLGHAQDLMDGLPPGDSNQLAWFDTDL

IC50 [nM]	Structure (SMILES)
8660	CC(=O)N1CCC[C@]12CC=CCCCC1(CCCC=CCCCOC(=O)N3CC[C@@](C(=O)N[C@@H](Cc4ccsc4)C(=O)N[C@@H](Cc4csc5ccccc45)C(=O)N[C@@H](CCC(N)=O)C(N)=O)(C3)NC(=O)[C@H](CC(N)=O)NC(=O)[C@H](Cc3ccccc3)NC(=O)[C@H](C)NC(=O)[C@H](C)NC(=O)[C@H](CC(=O)O)NC(=O)[C@H](CC(C)C)NC1=O)NC(=O)[C@H](CC(C)(C)C)NC(=O)[C@H](CC(=O)O)NC2=O (stereo partly drawn) [I-1212, Ac-PL3-Asp-Npg-B5-Leu-Asp-Ala-Ala-Phe-Asn-PyrS2-3Thi-BztA-Gln-NH2]
511	CC(=O)N1CCC[C@]12CC=CCCCC1(CCCC=CCCCOC(=O)N3CC[C@@](C(=O)N[C@@H](Cc4ccsc4)C(=O)N[C@@H](Cc4csc5ccccc45)C(=O)N[C@@H](CCC(N)=O)C(N)=O)(C3)NC(=O)[C@H](CC(N)=O)NC(=O)[C@H](Cc3ccccc3)NC(=O)[C@H](C)NC(=O)[C@H](C)NC(=O)[C@H](CC(=O)O)NC(=O)[C@H](CC(=O)O)NC1=O)NC(=O)[C@H](CC(C)(C)C)NC(=O)[C@H](CO)NC2=O (stereo partly drawn) [I-1222, Ac-PL3-Ser-Npg-B5-Asp-Asp-Ala-Ala-Phe-Asn-PyrS2-3Thi-BztA-Gln-NH2]
550	CC(=O)N1CCC[C@]12CC=CCCCC1(CCCC=CCCCOC(=O)N3CC[C@@](C(=O)N[C@@H](Cc4ccsc4)C(=O)N[C@@H](Cc4csc5ccccc45)C(=O)N[C@@H](CCC(N)=O)C(N)=O)(C3)NC(=O)[C@H](CC(C)C)NC(=O)[C@H](Cc3ccccc3)NC(=O)[C@H](C)NC(=O)[C@H](C)NC(=O)[C@H](CC(=O)O)NC(=O)[C@H](CC(=O)O)NC1=O)NC(=O)[C@H](CC(C)(C)C)NC(=O)[C@H](CO)NC2=O (stereo partly drawn) [I-1223, Ac-PL3-Ser-Npg-B5-Asp-Asp-Ala-Ala-Phe-Leu-PyrS2-3Thi-BztA-Gln-NH2]
305	CC(=O)N1CCC[C@]12CC=CCCCC1(CCCC=CCCCOC(=O)N3CC[C@@](C(=O)N[C@@H](Cc4ccsc4)C(=O)N[C@@H](Cc4csc5ccccc45)C(=O)N[C@@H](CCC(N)=O)C(N)=O)(C3)NC(=O)[C@H](CC(C)C)NC(=O)[C@H](Cc3ccccc3)NC(=O)[C@H](C)NC(=O)[C@H](C)NC(=O)[C@H](CC(=O)O)NC(=O)[C@H](CC(=O)O)NC1=O)NC(=O)[C@H](CC(C)(C)C)NC(=O)[C@H](CCC(N)=O)NC2=O (stereo partly drawn) [I-1225, Ac-PL3-Gln-Npg-B5-Asp-Asp-Ala-Ala-Phe-Leu-PyrS2-3Thi-BztA-Gln-NH2]
559	CC(=O)N1CCC[C@]12CC=CCCCC1(CCCC=CCCCOC(=O)N3CC[C@@](C(=O)N[C@@H](Cc4ccsc4)C(=O)N[C@@H](Cc4csc5ccccc45)C(=O)N[C@@H](CCC(N)=O)C(N)=O)(C3)NC(=O)[C@H](CC(N)=O)NC(=O)[C@H](Cc3ccccc3)NC(=O)[C@H](C)NC(=O)[C@H](C)NC(=O)[C@H](CC(=O)O)NC(=O)[C@H](CC(=O)O)NC1=O)NC(=O)[C@H](CC(C)(C)C)NC(=O)[C@H](CC(C)C)NC2=O (stereo partly drawn) [I-1226, Ac-PL3-Leu-Npg-B5-Asp-Asp-Ala-Ala-Phe-Asn-PyrS2-3Thi-BztA-Gln-NH2]
134	CC(=O)N1CCC[C@]12CC=CCCCC1(CCCC=CCCCOC(=O)N3CC[C@@](C(=O)N[C@@H](Cc4ccsc4)C(=O)N[C@@H](Cc4csc5ccccc45)C(=O)N[C@@H](CCC(N)=O)C(N)=O)(C3)NC(=O)[C@H](CC(C)C)NC(=O)[C@H](Cc3ccccc3)NC(=O)[C@H](C)NC(=O)[C@H](C)NC(=O)[C@H](CC(=O)O)NC(=O)[C@H](CC(=O)O)NC1=O)NC(=O)[C@H](CC(C)(C)C)NC(=O)[C@H](CCO)NC2=O (stereo partly drawn) [I-1229, Ac-PL3-Hse-Npg-B5-Asp-Asp-Ala-Ala-Phe-Leu-PyrS2-3Thi-BztA-Gln-NH2]

Second part, the compound before the results:

Structure (SMILES)	IC50 [nM]
CC(=O)N1CCC[C@]12CC=CCCCC1(CCCC=CCCCCCC[C@@](C)(C(=O)N[C@@H](Cc3ccsc3)C(=O)N[C@@H](Cc3csc4ccccc34)C(=O)N[C@@H](CCC(N)=O)C(N)=O)NC(=O)[C@H](CC(N)=O)NC(=O)[C@H](Cc3ccccc3)NC(=O)[C@H](C)NC(=O)[C@H](C)NC(=O)[C@H](CC(=O)O)NC(=O)[C@H](CC(=O)O)NC1=O)NC(=O)[C@H](CC(C)(C)C)NC(=O)[C@H](CC(=O)O)N(C)C2=O (stereo partly drawn) [I-1165, Ac-PL3-NMeD-Npg-B5-Asp-Asp-Ala-Ala-Phe-Asn-S8-3Thi-BztA-Gln-NH2]	722
CC(=O)N1CCC[C@]12CC=CCCCC1(CCCC=CCCCOC(=O)N3CC[C@@](C(=O)N[C@@H](Cc4ccsc4)C(=O)N[C@@H](Cc4csc5ccccc45)C(=O)N[C@@H](CCC(N)=O)C(N)=O)(C3)NC(=O)[C@H](CC(N)=O)NC(=O)[C@H](Cc3ccccc3)NC(=O)[C@H](C)NC(=O)[C@H](C)NC(=O)[C@H](CC(=O)O)NC(=O)[C@H](CC(=O)O)NC1=O)NC(=O)[C@H](CC(C)(C)C)NC(=O)[C@H](CCC(N)=O)NC2=O (stereo partly drawn) [I-1224, Ac-PL3-Gln-Npg-B5-Asp-Asp-Ala-Ala-Phe-Asn-PyrS2-3Thi-BztA-Gln-NH2]	389
CC(=O)N1CCC[C@]12CC=CCCCC1(CCCC=CCCCOC(=O)N3CC[C@@](C(=O)N[C@@H](Cc4ccsc4)C(=O)N[C@@H](Cc4csc5ccccc45)C(=O)N[C@@H](CCC(N)=O)C(N)=O)(C3)NC(=O)[C@H](CC(N)=O)NC(=O)[C@H](Cc3ccccc3)NC(=O)[C@H](C)NC(=O)[C@H](C)NC(=O)[C@H](CC(=O)O)NC(=O)[C@H](CC(=O)O)NC1=O)NC(=O)[C@H](CC(C)(C)C)NC(=O)[C@H](CCO)NC2=O (stereo partly drawn) [I-1228, Ac-PL3-Hse-Npg-B5-Asp-Asp-Ala-Ala-Phe-Asn-PyrS2-3Thi-BztA-Gln-NH2]	100
CC(=O)N1CCC[C@]12CC=CCCCC1(CCCC=CCCCOC(=O)N3CC[C@@](C(=O)N[C@@H](Cc4ccccc4Cl)C(=O)N[C@@H](Cc4csc5ccccc45)C(=O)N[C@H](CO)CC(C)C)(C3)NC(=O)[C@H]([C@@H](C)O)NC(=O)[C@H](Cc3ccccc3)NC(=O)[C@H](C)NC(=O)[C@H](C)NC(=O)[C@H](CN(CC(=O)O)CC(F)(F)F)NC(=O)[C@H](CC(=O)O)NC1=O)NC(=O)[C@H](CC(C)(C)C)NC(=O)[C@H](CC(=O)O)NC2=O (stereo partly drawn) [I-1243, Ac-PL3-Asp-Npg-B5-Asp-TfeGA-Ala-Ala-Phe-Thr-PyrS2-2C1F-BztA-Leuo1]	82
CC(=O)N1CCC[C@]12CC=CCCCC1(CCCC=CCCCOC(=O)N3CC[C@@](C(=O)N[C@@H](Cc4ccccc4Cl)C(=O)N[C@@H](Cc4csc5ccccc45)C(=O)N[C@H](CO)CC(C)C)(C3)NC(=O)[C@H](CC(C)C)NC(=O)[C@H](Cc3ccccc3)NC(=O)[C@H](C)NC(=O)[C@H](C)NC(=O)[C@H](CC(=O)O)NC(=O)[C@H](CC(=O)O)NC1=O)NC(=O)[C@H](CC(C)(C)C)NC(=O)[C@H](CC(=O)O)NC2=O (stereo partly drawn) [I-1251, Ac-PL3-Asp-Npg-B5-Asp-Asp-Ala-Ala-Phe-Leu-PyrS2-2C1F-BztA-Leuo1]	1940
CCCCCCCC(=O)N1CCC[C@]12CC=CCCCC1(CCCC=CCCCCCC[C@@](C)(C(=O)N[C@@H](Cc3ccccc3Cl)C(=O)N[C@@H](Cc3csc4ccccc34)C(=O)N[C@@H](CCC(N)=O)C(N)=O)NC(=O)[C@H]([C@@H](C)O)NC(=O)[C@H](Cc3ccccc3)NC(=O)[C@H](C)NC(=O)[C@H](C)NC(=O)[C@H](CC(=O)O)NC(=O)[C@H](CC(=O)O)NC1=O)NC(=O)[C@H](CC(C)(C)C)NC(=O)[C@H](CC(=O)O)NC2=O (stereo partly drawn) [I-1254, Oct-PL3-Asp-Npg-B5-Asp-Asp-Ala-Ala-Phe-Thr-S8-2C1F-BztA-Gln-NH2]	530
